From US7776858B2, “Methods of treatment of chronic pain using eszopiclone” (Sepracor Inc., priority 2004, dated 2010)

Key:
mice = assay: Antagonism of oxotremorine induced salivation; type: in vivo; details: doses up to 300 mg/kg, p.o.
Protocol: Eszopiclone was evaluated for antimuscarinic activity in vivo.

[1] = tested on: subjects with insomnia related to rheumatoid arthritis; assay: Subject Pain Severity Assessment (0 to 10 scale), clinical study of eszopiclone 3 mg vs placebo; type: in vivo, human
Protocol: (§1) The study was aimed at observing the effect of eszopiclone 3 mg compared to placebo on daytime function in subjects with insomnia related to rheumatoid arthritis. The study was a multicenter, randomized, double-blind, placebo controlled, parallel group study.
A total of 153 subjects were randomized. Among them, 77 received 3 mg of eszopiclone (ESZ) nightly (at bedtime) for four weeks and 76 received matching placebo (PBO). The discontinuation rates were low, 5.2% in the ESZ group and 9.2% in the PBO group. The patient population was predominantly female (87%) and Caucasian (84%). Mean age was 52, with a range of 27-64. […] In addition, subjects had insomnia symptoms including wake time after sleep onset (WASO) of ≧45 minutes, and total sleep time ≦6.5 hours. Diagnosis of rheumatoid arthritis predated the onset of insomnia symptoms.
(§2) During the double blind treatment, subjects were dosed with 3 mg eszopiclone (ESZ) or matching placebo (PBO) nightly (at bedtime) for four weeks. Data was analyzed with one-sided significance tests.

[2] = tested on: subjects with insomnia related to rheumatoid arthritis; assay: Arthritis Self-Efficacy Scale, clinical study of eszopiclone 3 mg vs placebo; type: in vivo, human
Protocol: as §1
A total of 153 subjects were randomized. Among them, 77 received 3 mg of eszopiclone (ESZ) nightly (at bedtime) for four weeks and 76 received matching placebo (PBO). […] In addition, subjects had insomnia symptoms including wake time after sleep onset (WASO) of ≧45 minutes, and total sleep time ≦6.5 hours. Diagnosis of rheumatoid arthritis predated the onset of insomnia symptoms.
as §2

[3] = 3 mg nightly, visit 5 (Week 4), ITT, scale 0 to 10
[4] = 3 mg nightly, visit 5 (Week 4), ITT

`CN1CCN(C(=O)O[C@H]2c3nccnc3C(=O)N2c2ccc(Cl)cn2)CC1` [Eszopiclone, (+) 6-(5-chloropyrid-2-yl)-5-(4-methylpiperazin-1-yl)carbonyloxy-7-oxo-6,7-dihydro-5H-pyrrolo[3-4-b]pyrazine] was tested, and the “antagonism of oxotremorine induced salivation” value (mice) was “neither (R)-, (S)-, nor racemic zopiclone significantly antagonized”, the “effect on change from baseline to the end of study in the Subject Pain Severity Assessment” value ([1]; 3 mg nightly vs placebo) was “significant effect” and the “Subject Pain Severity Assessment, Change from Baseline, Least Squares Means (SE) [2]” value ([1]; 3 mg nightly, visit 5 (Week 4), ITT, ANCOVA) was −0.5 (0.2). The “Subject Pain Severity Assessment, Change from Baseline, 25th Percentile” value [1, 3] was −2.0, the “Subject Pain Severity Assessment, Change from Baseline, 75th Percentile” value [1, 3] was 0.5 and the “Subject Pain Severity Assessment, Change from Baseline, Maximum” value [1, 3] was 7.0. For the same compound, the “Subject Pain Severity Assessment, Change from Baseline, Mean (SD)” value [1, 3] was −0.5 (2.6), the “Subject Pain Severity Assessment, Change from Baseline, Median” value [1, 3] was −1.0 and the “Subject Pain Severity Assessment, Change from Baseline, Minimum” value [1, 3] was −7.0. For the same compound, the “Subject Pain Severity Assessment, Observed Value, 25th Percentile” value [1, 3] was 2.5, the “Subject Pain Severity Assessment, Observed Value, 75th Percentile” value [1, 3] was 7.0 and the “Subject Pain Severity Assessment, Observed Value, Maximum” value [1, 3] was 10.0. For the same compound, the “Subject Pain Severity Assessment, Observed Value, Mean (SD)” value [1, 3] was 4.6 (2.7), the “Subject Pain Severity Assessment, Observed Value, Median” value [1, 3] was 5.0 and the “Subject Pain Severity Assessment, Observed Value, Minimum” value [1, 3] was 0.0. For the same compound, the “Arthritis Self-Efficacy Scale Pain subscale analyzed alone, difference” value ([2]; 3 mg nightly vs placebo) was “statistically significant difference”, the “Arthritis Self-Efficacy Scale Pain subscale in combination with Other Symptoms, difference” value ([2]; 3 mg nightly vs placebo) was “statistically significant difference” and the “effect on change from baseline to end of study (Week 4) in the Overall score for the Arthritis Self-Efficacy Scale” value ([2]; 3 mg nightly vs placebo) was “significant effect”. The “Arthritis Self-Efficacy Scale Function, Change from Baseline, 25th Percentile” value [2, 4] was −1.0, the “Arthritis Self-Efficacy Scale Function, Change from Baseline, 75th Percentile” value [2, 4] was 13.5 and the “Arthritis Self-Efficacy Scale Function, Change from Baseline, Maximum” value [2, 4] was 74.0. The “Arthritis Self-Efficacy Scale Function, Change from Baseline, Mean (SD)” value [2, 4] was 4.8 (15.7), the “Arthritis Self-Efficacy Scale Function, Change from Baseline, Median” value [2, 4] was 4.0 and the “Arthritis Self-Efficacy Scale Function, Change from Baseline, Minimum” value [2, 4] was −34.0. The “Arthritis Self-Efficacy Scale Function, Observed Value, 25th Percentile” value [2, 4] was 45.5, the “Arthritis Self-Efficacy Scale Function, Observed Value, 75th Percentile” value [2, 4] was 83.5 and the “Arthritis Self-Efficacy Scale Function, Observed Value, Maximum” value [2, 4] was 90.0. The “Arthritis Self-Efficacy Scale Function, Observed Value, Mean (SD)” value [2, 4] was 62.0 (22.1), the “Arthritis Self-Efficacy Scale Function, Observed Value, Median” value [2, 4] was 61.0 and the “Arthritis Self-Efficacy Scale Function, Observed Value, Minimum” value [2, 4] was 13.0. For the same compound, the “Arthritis Self-Efficacy Scale Other Symptoms, Change from Baseline, 25th Percentile” value [2, 4] was −2.0, the “Arthritis Self-Efficacy Scale Other Symptoms, Change from Baseline, 75th Percentile” value [2, 4] was 10.0 and the “Arthritis Self-Efficacy Scale Other Symptoms, Change from Baseline, Maximum” value [2, 4] was 41.0. For the same compound, the “Arthritis Self-Efficacy Scale Other Symptoms, Change from Baseline, Mean (SD)” value [2, 4] was 3.5 (10.5), the “Arthritis Self-Efficacy Scale Other Symptoms, Change from Baseline, Median” value [2, 4] was 3.0 and the “Arthritis Self-Efficacy Scale Other Symptoms, Change from Baseline, Minimum” value [2, 4] was −26.0. The “Arthritis Self-Efficacy Scale Other Symptoms, Observed Value, 25th Percentile” value [2, 4] was 31.5, the “Arthritis Self-Efficacy Scale Other Symptoms, Observed Value, 75th Percentile” value [2, 4] was 50.0 and the “Arthritis Self-Efficacy Scale Other Symptoms, Observed Value, Maximum” value [2, 4] was 59.0. The “Arthritis Self-Efficacy Scale Other Symptoms, Observed Value, Mean (SD)” value [2, 4] was 39.3 (12.7), the “Arthritis Self-Efficacy Scale Other Symptoms, Observed Value, Median” value [2, 4] was 40.0 and the “Arthritis Self-Efficacy Scale Other Symptoms, Observed Value, Minimum” value [2, 4] was 6.0. For the same compound, the “Arthritis Self-Efficacy Scale Overall, Change from Baseline, 25th Percentile” value [2, 4] was −1.6, the “Arthritis Self-Efficacy Scale Overall, Change from Baseline, 75th Percentile” value [2, 4] was 26.0 and the “Arthritis Self-Efficacy Scale Overall, Change from Baseline, Maximum” value [2, 4] was 124.0. For the same compound, the “Arthritis Self-Efficacy Scale Overall, Change from Baseline, Mean (SD)” value [2, 4] was 11.5 (29.3), the “Arthritis Self-Efficacy Scale Overall, Change from Baseline, Median” value [2, 4] was 12.0 and the “Arthritis Self-Efficacy Scale Overall, Change from Baseline, Minimum” value [2, 4] was −74.0. For the same compound, the “Arthritis Self-Efficacy Scale Overall, Observed Value, 25th Percentile” value [2, 4] was 103.0, the “Arthritis Self-Efficacy Scale Overall, Observed Value, 75th Percentile” value [2, 4] was 162.5 and the “Arthritis Self-Efficacy Scale Overall, Observed Value, Maximum” value [2, 4] was 189.0. The “Arthritis Self-Efficacy Scale Overall, Observed Value, Mean (SD)” value [2, 4] was 130.9 (38.2), the “Arthritis Self-Efficacy Scale Overall, Observed Value, Median” value [2, 4] was 132.6 and the “Arthritis Self-Efficacy Scale Overall, Observed Value, Minimum” value [2, 4] was 27.0. The “Arthritis Self-Efficacy Scale Pain and Other Symptoms, Change from Baseline, 25th Percentile” value [2, 4] was 1.0, the “Arthritis Self-Efficacy Scale Pain and Other Symptoms, Change from Baseline, 75th Percentile” value [2, 4] was 13.0 and the “Arthritis Self-Efficacy Scale Pain and Other Symptoms, Change from Baseline, Maximum” value [2, 4] was 50.0. The “Arthritis Self-Efficacy Scale Pain and Other Symptoms, Change from Baseline, Mean (SD)” value [2, 4] was 6.9 (16.4), the “Arthritis Self-Efficacy Scale Pain and Other Symptoms, Change from Baseline, Median” value [2, 4] was 6.0 and the “Arthritis Self-Efficacy Scale Pain and Other Symptoms, Change from Baseline, Minimum” value [2, 4] was −46.0. The “Arthritis Self-Efficacy Scale Pain and Other Symptoms, Observed Value, 25th Percentile” value [2, 4] was 53.5, the “Arthritis Self-Efficacy Scale Pain and Other Symptoms, Observed Value, 75th Percentile” value [2, 4] was 86.0 and the “Arthritis Self-Efficacy Scale Pain and Other Symptoms, Observed Value, Maximum” value [2, 4] was 101.0. For the same compound, the “Arthritis Self-Efficacy Scale Pain and Other Symptoms, Observed Value, Mean (SD)” value [2, 4] was 68.5 (21.1), the “Arthritis Self-Efficacy Scale Pain and Other Symptoms, Observed Value, Median” value [2, 4] was 69.7 and the “Arthritis Self-Efficacy Scale Pain and Other Symptoms, Observed Value, Minimum” value [2, 4] was 14.0. For the same compound, the “Arthritis Self-Efficacy Scale Pain, Change from Baseline, 25th Percentile” value [2, 4] was −1.0, the “Arthritis Self-Efficacy Scale Pain, Change from Baseline, 75th Percentile” value [2, 4] was 10.5 and the “Arthritis Self-Efficacy Scale Pain, Change from Baseline, Maximum” value [2, 4] was 30.0. For the same compound, the “Arthritis Self-Efficacy Scale Pain, Change from Baseline, Mean (SD)” value [2, 4] was 3.3 (10.5), the “Arthritis Self-Efficacy Scale Pain, Change from Baseline, Median” value [2, 4] was 3.0 and the “Arthritis Self-Efficacy Scale Pain, Change from Baseline, Minimum” value [2, 4] was −37.0. For the same compound, the “Arthritis Self-Efficacy Scale Pain, Observed Value, 25th Percentile” value [2, 4] was 22.0, the “Arthritis Self-Efficacy Scale Pain, Observed Value, 75th Percentile” value [2, 4] was 38.0 and the “Arthritis Self-Efficacy Scale Pain, Observed Value, Maximum” value [2, 4] was 50.0.
